Peptide text beside a SMILES is read from it. * marks the point of attachment. Palmitoyl = CCCCCCCCCCCCCCCC(=O)*; Decanoyl = CCCCCCCCCC(=O)*
Legend:
[1] = pH-dependent release of encapsulated 3 kDa FITC-dextran to screen PA sequences; format: physicochemical; settings: 3 kDa FITC-dextran release; pH 7 minus pH 5 at 5 hr
Source text: GOx conversion of physiological levels of glucose to yield gluconic acid can lead to a microenvironmental pH in the range of ˜4-5.6. Accordingly, a molecular design was envisioned bearing the typical saturated alkyl chain and β-sheet-forming sequence coupled to glutamic acid as the hydrophilic domain; the pKa of its carboxylate R-group (˜4.5) can shift upward in the range of 4.5-6 due to aggregation effects from PA self-assembly. […] Different PA sequences were synthesized to vary the alkyl tail length (C10 and C16) and valine (V)-alanine (A) β-sheet sequence (V2A2, VA3, A2) with a conserved hydrophilic head group (E2). The intention of screening this small set of molecules was to probe pH-responsive release to determine the optimal balance of attractive and repulsive forces required for the envisioned application of assembly at normal glucose (i.e., low pH actuated by GOx) but disassembly and glucagon release in low glucose conditions (i.e., neutral-buffered physiological pH). […] The selected sequence has a shorter C10 alkyl segment than commonly used in most reported PA materials. The V2A2 sequence is thought to be effective for β-sheet hydrogen bonding, while still being shorter than most commonly explored sequences. […] Thus, a reduction in cohesive forces from a shorter alkyl segment and a 4-residue β-sheet forming segment was thought to enable more rapid responsiveness dependent on the charge state of the glutamic acid residues.
Hydrogels were prepared in all cases in a pH 5 buffer at 1% w/v to ensure initial gelation. […] It is noted that catalase was added to these formulations in order to catalyze the conversion of the toxic GOx byproduct, H2O2, into H2O and O2 in advance of in vivo application, as is commonly done to reduce toxicity for other GOx-based glucose-responsive materials.

[2] = pH recorded by microelectrode submerged in PA/GOx hydrogel samples; format: physicochemical; settings: 24 h, began at pH 7.4
[3] = Oscillatory rheology of 1% w/v PA samples in buffers of various pH; format: physicochemical; settings: for storage modulus G′: 1% w/v, 1% strain, 10 rad/s
Method: The C10-V2A2E2 peptide (SEQ ID NO: 4) amphiphile was first dissolved in DI water at a concentration of 2% (w/v). The solution was adjusted to pH 7.4 using 0.1 M HCl, and then mixed with an equal volume of citrate-phosphate buffer (150 mM buffer+150 mM NaCl) at different pH (4, 5, 6, 7, 8) to form a gel at a concentration of 1% (w/v) in a final buffer concentration of 150 mM.
(§1) Dynamic oscillatory rheology was performed on a TA Instruments Discovery HR-2 rheometer fitted with a Peltier stage using a parallel plate geometry with diameter of 25 mm to test the mechanical properties of all peptide hydrogels. Samples were prepared at a concentration of 1% (w/v) in buffers of different pH or glucose concentration, as described above, and measured 24 h after gel preparation. An amplitude sweep was first performed to determine the linear viscoelastic range for each hydrogel condition, and then a frequency sweep was performed at constant strain. Subsequently, a time-sweep (1% strain, 10 rad/s angular frequency) was performed for all hydrogels to measure and compare the storage modulus (G′).
Vial inversion affords a crude means to inspect bulk differences in apparent hydrogelation. By contrast, rheological testing enables quantitative insights into the mechanical and dynamic properties of these materials. Oscillatory rheology was thus performed to quantify the observed pH-dependent differences in hydrogelation. Samples were first assessed with a strain sweep to determine the linear viscoelastic range, and then gel-forming samples were subjected to a frequency sweep to verify the range of oscillatory frequency rates wherein the storage modulus (G′) exceeded the viscous/loss modulus (G″).
The G′ values for samples at each pH were compared at a constant strain of 1% and frequency of 10 rad/s. When comparing G′ values across the full range of pH explored (n=2 gels/sample), pH-dependent mechanical properties were clearly evident (FIG. 4E, FIG. 7). […] Samples prepared at pH 8 had G′ measurements at the lower limit of instrument sensitivity.

[4] = Oscillatory rheology of 1% w/v PA with GOx at various glucose concentrations; format: physicochemical; settings: pH 7.4 start, 24 h
Method: The C10-V2A2E2 peptide amphiphile was first dissolved in DI water at a concentration of 2% (w/v). The solution was adjusted to pH 7.4 using 0.1 M HCl, and then mixed with an equal volume of 300 mM NaCl solution containing 440 U/mL GOx and different glucose concentration (0, 100, 200, 300, 400 mg/dL) to achieve final glucose concentrations of 0, 50, 100, 150, and 200 mg/dL and final peptide concentration of 1% (w/v).
as §1
After pH-dependent self-assembly and gelation was established, glucose-dependent gelation was explored through the inclusion of GOx to actuate glucose into a pH stimulus. One benefit of hydrogelation of this material at 1% w/v is the significant hydrated and interconnected porosity (FIG. 9A-D) to enable encapsulation of proteins like GOx to drive gelation in response to glucose. Samples of C10-V2A2E2 were prepared at 1% w/v in buffer at pH 7.4, with glucose added to achieve concentrations ranging from 0 to 200 mg/dL (0 to 11.1 mM). These ranges of glucose were selected to span typical physiological glucose levels in the healthy state and extend down to levels corresponding to hypoglycemia. Following equilibration for 24 h, samples were assessed grossly for gelation by vial inversion (FIG. 10A), as performed in pH-dependent gelation studies. […] The material prepared with 100 mg/dL glucose was very viscous but slowly flowed upon inversion, while those prepared at 0 mg/dL and 50 mg/dL were not self-supported on inversion.
Measurements were collected as before for gels prepared in each of the different glucose-containing buffers. The value of G′ increased with increasing levels of glucose, as follows: 10.2 Pa (0 mg/dL), 19.0 Pa (50 mg/dL), 29.5 Pa (100 mg/dL), 206.6 Pa (150 mg/dL), and 2.4 kPa (200 mg/dL). Given results of pH-dependent gelation for C10-V2A2E2 PA, it was expected that inclusion of GOx would actuate increased glucose level into a local reduction in pH driving hydrogelation. […] The fixed and finite glucose concentrations within these small volume hydrogels may somewhat limit direct comparisons with concentrations for their use in a physiological setting, as a replenishable glucose supply could further stiffen the materials through enhanced pH reduction.

[5] = humans; cited from earlier work
[6] = in vivo; cited from earlier work
[7] = test system: Streptozotocin (STZ) diabetic mice; experiment: Prophylactic hypoglycemia prevention after insulin overdose in diabetic mice
Method: To assess the ability of this technology to act in a preventative role to limit the onset and severity of hypoglycemia, a mouse model was established. Male C57BL6/J mice, aged 8 weeks, were induced to be diabetic by the destruction of pancreatic β-cells using a single intraperitoneal (i.p.) injection of streptozotocin (STZ, Cayman Chemical) at a dose of 150 mg/kg, according to published dosing protocols. […] Insulin-deficient diabetes was verified at 9-13 days following STZ treatment using handheld blood glucose meters (CVS brand) to ensure unfasted blood glucose (BG) levels of 600+ mg/dL. These glucometers measure blood glucose values in the range of 20-600 mg/dL. For convention in presenting data, values of “high” are plotted as 600 mg/dL, while values of “low” are plotted as 20 mg/dL.
Mice were fasted overnight for a period of 9 h, after which time BG was again measured. Mice having a fasted BG<450 mg/dL were triaged and removed from further study. Remaining mice were dosed with basal insulin detemir (Levemir®, Novo Nordisk) via subcutaneous (s.c.) injection at a dose of 0.5 IU/kg in a total injection volume of 100 μL. […] This material formulation was verified to be stable following extrusion through a syringe into a pH 7 buffer containing 100 mg/dL glucose. Blood glucose was monitored serially following treatment, which for purposes of data visualization was set as t=0 min. At 2 h following administration of treatments, hypoglycemia was induced by i.p. injection of AOF recombinant human insulin (Gibco) at a dose of ˜2.5 IU/kg in 100 μL of saline. BG levels were monitored for an additional 3 h after insulin overdose to monitor the onset of, and recovery from, hypoglycemia. […] In total n=9 mice per group were assessed by these methods, performing all treatments in two separate experiments on different mouse cohorts at different times and combining the data for analysis here. Mice were fasted for the duration of the study but had continuous access to water. […] Statistical testing between treatment and control groups was performed using one-way ANOVA with Tukey multiple comparison post-hoc testing (GraphPad Prism v9.0).
STZ mice were fasted to increase sensitivity to both insulin and glucagon and limit confounding data arising from variable eating patterns. After a 9 h fast, basal insulin detemir (Novo Nordisk, Levemir®) was administered to correct blood glucose to within the normoglycemic range for a healthy mouse (˜180-200 mg/dL) to simulate insulin-dependent blood glucose control in diabetes.

CCCCCCCCCCCCCCCC(=O)N[C@H](C(=O)N[C@H](C(=O)N[C@@H](C)C(=O)N[C@@H](C)C(=O)N[C@@H](CCC(=O)O)C(=O)N[C@@H](CCC(=O)O)C(N)=O)C(C)C)C(C)C [C16—V2A2E2] (Palmitoyl-VVAAEE-NH2)
Δ Release % (pH 7-5 at 5 hr) [1]: 43.6%

CCCCCCCCCC(=O)N[C@H](C(=O)N[C@H](C(=O)N[C@@H](C)C(=O)N[C@@H](C)C(=O)N[C@@H](CCC(=O)O)C(=O)N[C@@H](CCC(=O)O)C(N)=O)C(C)C)C(C)C [C10—V2A2E2] (Decanoyl-VVAAEE-NH2)
pH within hydrogel sample ([2]; 0 mg/dL glucose): 7.3
pH within hydrogel sample ([2]; 200 mg/dL glucose): 5.5
Δ Release % (pH 7-5 at 5 hr) [1]: 62.6%
critical strain ([3]; hydrogel in buffer at pH 5): ~55%
strain range of linear behavior with G′>G″ ([3]; hydrogel in buffer at pH 5): 0.1-5%
pKa ([3]; inferred from rheology, TEM, CD, FTIR, ThT, read-out: pKa of glutamic acid residues in the assembled structures): 5 to 6
storage modulus G′ ([3]; pH 4): 6.2 kPa
storage modulus G′ ([3]; pH 5): 5.1 kPa
storage modulus G′ ([3]; pH 6): 53.7 Pa
storage modulus G′ ([3]; pH 7): 4.3 Pa
storage modulus G′ ([3]; pH 8): 1.2 Pa
storage modulus G′ ([4]; 0 mg/dL glucose): 10.2 Pa
storage modulus G′ ([4]; 50 mg/dL glucose): 19.0 Pa
storage modulus G′ ([4]; 100 mg/dL glucose): 29.5 Pa
storage modulus G′ ([4]; 150 mg/dL glucose): 206.6 Pa
storage modulus G′ ([4]; 200 mg/dL glucose): 2.4 kPa

insulin detemir
duration of action [5]: 18 to 20 h

glucagon
half-life in circulation [6]: approximately 5 min

CCCCCCCCCC(=O)N[C@H](C(=O)N[C@@H](C)C(=O)N[C@@H](C)C(=O)N[C@@H](C)C(=O)N[C@@H](CCC(=O)O)C(=O)N[C@@H](CCC(=O)O)C(N)=O)C(C)C [C10—VA3E2] (Decanoyl-VAAAEE-NH2)
Δ Release % (pH 7-5 at 5 hr) [1]: 39.1%

CCCCCCCCCCCCCCCC(=O)N[C@@H](C)C(=O)N[C@@H](C)C(=O)N[C@H](C(=O)N[C@H](C(=O)N[C@@H](CCC(=O)O)C(=O)N[C@@H](CCC(=O)O)C(N)=O)C(C)C)C(C)C [C16—A2V2E2] (Palmitoyl-AAVVEE-NH2)
Δ Release % (pH 7-5 at 5 hr) [1]: 38.9%

dasiglucagon
blood glucose relative to buffer control ([7]; 30 min after treatment, before insulin challenge): sharply increased
blood glucose at endpoint of study ([7]; 300 min, 3 h after insulin challenge, n=9): 65.6 ± 10.8 mg/dL
minimum (nadir) blood glucose ([7]; STZ mice, s.c. 0.01 mg dasiglucagon, insulin challenge at 2 h, n=9, SEM): 41.1 ± 5.0 mg/dL
observations of death ([7]; after insulin overdose): 1 of 9

CCCCCCCCCCCCCCCC(=O)N[C@H](C(=O)N[C@@H](C)C(=O)N[C@@H](C)C(=O)N[C@@H](C)C(=O)N[C@@H](CCC(=O)O)C(=O)N[C@@H](CCC(=O)O)C(N)=O)C(C)C [C16—VA3E2] (Palmitoyl-VAAAEE-NH2)
Δ Release % (pH 7-5 at 5 hr) [1]: 53.8%

Source: patent publication US20230357349A1, “GLUCAGON DELIVERY VIA ENZYMATIC ACTUATION” (University of Notre Dame du Lac, priority 2022, published 2023)
